Assays:
Type in all cases: in vivo, human
[1] = Systolic blood pressure monitored over the first 25 days of dosing in AD subjects
Description: An additional benefit of the therapeutic regimen disclosed herein is the beneficial control of systolic blood pressure in AD subjects taking daily oral dosages of A2-73 of from about 10 mg to about 50 mg. Systolic blood pressure was monitored over the first 25 days of dosing. A1-41 and A19-144 are similarly useful therapeutics.

[2] = test system: mild-to-moderate Alzheimer's disease patients; experiment: ADCS-ADL (Activities of Daily Living), Phase 2a study; details: for ADCS-ADL scores: through week 31, oral daily 10 mg to 50 mg, FIG. 2
Source text: Although the present invention calls for methods of treating insomnia, some primary sleep disorders, such as circadian rhythm disorders, advanced sleep phase disorder also termed sleep onset insomnia, mid-nocturnal insomnia, early morning insomnia, hyper insomnia, trouble staying asleep, jet lag, narcolepsy, non-24-hour sleep-wake syndrome, include insomnia as a component of the disorder. Thus, the term “insomnia” should be understood to also include the insomnia component of these disorders. • Aβ—Amyloid beta is abbreviated as Aβ. • AD—Alzheimer's disease is abbreviated as AD. • ADCS-ADL—Alzheimer's Disease Cooperative Study Activities of Daily Living Inventory is abbreviated as ADCS-ADL. • Cogstate tasks—Cogstate tasks refers to Cogstate cognitive tests (Cogstate Alzheimer's Battery) using visual and verbal stimuli to ensure assessment. These tests assess cognitive function in adults with mild cognitive impairment and clinically-diagnosed Alzheimer's disease. The test is culture-neutral and not limited by a subject or participant's level of education. A Cogstate battery comprises a number of individual tests—each designed to test a specific area of cognition. When a number of these individual tests are put together to form a test battery, a more complete picture of a person's cognitive state can be defined. • DPZ—Donepezil is abbreviated as DPZ. • EEG/ERP—EEG/ERP is a reference to ERP measured via EEG. • ERP—Event-related potential is abbreviated as ERP. • HAM-D—Hamilton Depression Rating Scale is abbreviated as HAM-D. • MCI—Mild cognitive impairment is abbreviated as MCI. • MMSE—MMSE refers to the Mini-Mental State Examination (MMSE) or Folstein test. This test is a 30-point questionnaire that is used extensively in clinical and research settings to measure cognitive impairment. • SWS—Slow-wave sleep is abbreviated as SWS. • WASO.—Waking after sleep onset is abbreviated WASO.
Efficacy data is presented through 31 week from the randomized (into different treatment regimens) open-label study with ANAVEX 2-73 oral daily dosing ranging from 10 mg to 50 mg. […]

[3] = test system: mild-to-moderate Alzheimer's disease patients; experiment: EEG/ERP (P300) target detection task, Phase 2a study; details: for False Alarms / P300 Amplitude / Task Accuracy / Reaction Time: mean ± SEM; for False Alarms: baseline 3.4 ± 1.0, healthy control 1.1 ± 0.2; for P300 Amplitude: baseline 5.99 ± 0.58, healthy control 7.36 ± 0.39; for Task Accuracy: baseline 83.8 ± 3.8, healthy control 94.1 ± 1.1; for Reaction Time: baseline 559.0 ± 24.0, healthy control 458.6 ± 11.4
Description: An event-related potential (ERP) is the measured brain response that is the direct result of a specific sensory, cognitive, or motor event. More formally, it is any stereotyped electrophysiological response to a stimulus. The study of the brain in this way provides a noninvasive means of evaluating brain functioning. ERPs are measured by means of electroencephalography (EEG). Particular efficacy data measurements addressed cognition and function. Cognitive measures include MMSE and Cogstate battery. Functional measures were ADCS-ADL. Supportive Biomarker Measurements include ERP (P300): fundamental measures of synaptic network performance and target engagement. ERP target detection task measures is a direct measure of attention, speed of brain processing, and simple functional performance. 2-73 Rescues Cognitive Effects on a Cellular Level on the subjects of the Phase 2a study. […] 2-73 effect on synaptic networks and effect on cognition and behavior at daily doses of 10 mg-50 mg is shown. ERP peak measures (P300) are shown. The P300 (P3) wave is an event related potential (ERP) component elicited in the process of decision making. It is considered to be an endogenous potential, as its occurrence links not to the physical attributes of a stimulus, but to a person's reaction to it. More specifically, the P300 is thought to reflect processes involved in stimulus evaluation or categorization. ERP target detection task is a direct measure of attention, speed of brain. processing, and simple behavioral performance. Psychometric measures (Cogstate) cognitive measures: Detection: processing speed (psychomotor function), Identification: reaction time (attention), One Back: working memory (cognition), One Card Learning: visual learning (visual memory), ISLT: verbal learning, ISLT-delay: verbal memory. Psychometric measures (MMSE): cognitive measures. Behavioral measures (ADCS-ADL): behavioral measures.

CN(C)CC1CCOC1(c1ccccc1)c1ccccc1.Cl (stereo not shown) [A2-73, tetrahydro-N,N-dimethyl-2,2-diphenyl-3-furanmethanamine hydrochloride]
Change in mean systolic BP, baseline to Day 25 ([1]; Hypertension Stage 1: 140-159 mm Hg): −16 mm Hg
Day 25 Mean systolic BP ±SD ([1]; Hypertension Stage 1: 140-159 mm Hg, baseline 145 ± 3): 129 ± 12 mm Hg
Change in mean systolic BP, baseline to Day 25 ([1]; Hypertension Stage 2: 160-179 mm Hg): −22 mm Hg
Day 25 Mean systolic BP ±SD ([1]; Hypertension Stage 2: 160-179 mm Hg, baseline 170 ± 8): 148 ± 19 mm Hg
Change in mean systolic BP, baseline to Day 25 ([1]; Hypertensive crisis >180 mm Hg): −27 mm Hg
Day 25 Mean systolic BP ±SD ([1]; Hypertensive crisis >180 mm Hg, baseline 185 ± 0): 159 ± 43 mm Hg
Change in mean systolic BP, baseline to Day 25 ([1]; Pre Hypertension 120-139 mm Hg): −9 mm Hg
Day 25 Mean systolic BP ±SD ([1]; Pre Hypertension 120-139 mm Hg, baseline 131 ± 6): 122 ± 15 mm Hg
Change in mean systolic BP, baseline to Day 25 ([1]; baseline classification <120 mm Hg): 8 mm Hg
Day 25 Mean systolic BP ±SD ([1]; baseline classification <120 mm Hg, baseline 115 ± 2, oral daily 10-50 mg): 123 ± 11 mm Hg
Systolic blood pressure in subjects with high-normal systolic blood pressure ([1]; first 25 days of dosing): rose
Systolic blood pressure in hypertensive subjects ([1]; first 25 days of dosing, greater reduction for increasingly hypertensive subjects): significantly reduced
ADCS-ADL score, ANAVEX 2-73 alone vs ANAVEX 2-73 with DPZ (donepezil) ([2]; over 31 weeks, exploratory analysis, FIG. 6): no notable difference
ADCS-ADL scores ([2]; hydrochloride): maintained at a constant level
ADCS-ADL scores ([2]; listed as ANAVEX 2-73, hydrochloride): preserves average MMSE and ADCS-ADL scores
False Alarms ([3]; 5 Week): 1.0 ± 0.5%
P300 Amplitude ([3]; 5 Week, daily 10 mg-50 mg): 7.09 ± 0.72 μV
Task Accuracy ([3]; 5 Week): 92.6 ± 2.4%
Reaction Time ([3]; 5 Week): 492.6 ± 23.8 ms
All tested areas (ERP, Cogstate, MMSE, ADCS-ADL) vs starting baseline ([3]; 5 weeks, daily 10 mg-50 mg, FIG. 9): improvement
False Alarms ([3]; 17 Week): 1.2 ± 0.9%
P300 Amplitude ([3]; 17 Week): 6.38 ± 0.61 μV
Task Accuracy ([3]; 17 Week): 92.2 ± 3.9%
Reaction Time ([3]; 17 Week): 498.8 ± 24.8 ms
False Alarms ([3]; 31 Week): 2.6 ± 1.2%
P300 Amplitude ([3]; 31 Week): 5.93 ± 0.77 μV
Task Accuracy ([3]; 31 Week): 88.1 ± 4.4%
Reaction Time ([3]; 31 Week): 521.8 ± 28.1 ms

Reference: patent US12285403B2, “A2-73 as a therapeutic for insomnia, anxiety and agitation” (Anavex Life Sciences Corp., priority 2016, dated 2025)
